Measured values: patent publication US12617759B2, “Modifier of four-membered ring derivative, preparation method and application thereof” (Shanghai Hansoh Biomedical Co., Ltd., priority 2019, dated 2026)
Where two headings read alike, the source gives them in different places.

Legend:
[1] = Pharmacokinetic assay in Balb/c mice (plasma and brain tissue); type: in vivo; conditions: male, mouse, po, p.o. 5 mg/kg; for AUC(0-t): read-out: Area under curve AUC0-t; for Tmax: read-out: Peak time tmax; for Cmax: read-out: Plasma concentration Cmax
Procedure: Balb/c mice were used as test animals. The pharmacokinetic behavior in mouse body (plasma and brain tissue) of the compounds of Examples of the present invention orally administrated at a dose of 5 mg/kg was studied.
Male Balb/c mice (12 mice per group), purchased from Shanghai Jiesijie Laboratory Animal Co., LTD, with Certificate No.: SCXK (Shanghai) 2013-0006 N0.311620400001794.
The test compound was dissolved in 0.5% CMC-Na (1% Tween80) by sonication to formulate a clear solution or homogeneous suspension.
After an overnight fast, male Balb/c mice (12 mice per group) were administered p.o. with the test compound at an administration dose of 5 mg/kg and an administration volume of 10 mL/kg.
0.2 mL of blood was taken from the heart of the mouse before administration and at 1, 2, 4, 8 and 24 hours after administration, and the mice were sacrificed with CO2. The samples were stored in EDTA-K2 tubes, and centrifuged for 6 minutes at 4° C., 6000 rpm to separate the plasma. The plasma samples were stored at −80° C. Whole brain tissue was taken out, weighed, placed in a 2 mL centrifuge tube, and stored at −80° C.
• 1) 160 μL of acetonitrile was added to 40 μL of the plasma sample for precipitation, and then the mixture was centrifuged for 5 to 20 minutes at 3500×g. • 2) 90 μL of acetonitrile containing internal standard (100 ng/mL) was added to 30 µL of the plasma and brain homogenate sample for precipitation, and then the mixture was centrifuged for 8 minutes at 13000 rpm. • 3) 70 μL of water was added to 70 μL of the treated supernatant and mixed by vortex for 10 minutes. 20 μL of the supernatant was taken to analyze the concentration of the test compound by LC/MS/MS. LC/MS/MS analytical instrument: AB Sciex API 4000 Qtrap. 2.7 Liquid Chromatography Analysis: • Liquid chromatography condition: Shimadzu LC-20AD pump • Chromatographic column: Agilent ZORBAX XDB-C18 (50×2.1 mm, 3.5 m); Mobile phase: Eluent A was 0.1% formic acid in water, and Eluent B was acetonitrile • Flow rate: 0.4 mL/min • Elution time: 0-4.0 minutes, the eluent is as follows:
The main parameters of pharmacokinetics were calculated by WinNonlin 6.1.

[2] = Stability in rat liver microsome in vitro; type: in vitro ADME, SD rat
Procedure: (§1) To evaluate the metabolic stability of the compounds of the present invention in liver microsome in vitro.
(§2) Formulation of the working solution of the compound: 2 μL of the stock solution of the compound was added to 998 μL of phosphate buffer, and the final concentration was 20 μM.
(§3) 78.1 μL of 20 mg/mL microsome was diluted to 2.5 mL with 100 mM phosphate buffer and mixed well, and the final concentration was 0.625 mg/mL.
(§4) 33.3 mg of NADPH and 25.8 mg of UDPGA were weighed respectively, followed by the addition of 2 mL of 100 mM phosphate buffer. The final concentrations were 20 mM.
(§5) 1 mg of Alamethicin was weighed, to which 200 μL of DMSO was added to obtain a 5 mg/mL solution. 10 μL of this solution was added to 990 μL of phosphate buffer (pH 7.4), and the final concentration was 50 μg/mL.
(§6) 400 μL of the formulated liver microsome, 25 μL of the working solution of the compound (10 μM) and 25 μL of Alamethicin (50 μg/mL) were added to a 96-well plate successively, which was then pre-incubated at 37° C. for 10 min. 50 μL of the formulated NADPH/UDPGA was added to initiate the reaction, and the plate was incubated at 37° C. The total volume of the reaction system was 500 μL. The final contents of the components are as follows:
(§7) […] The resulting sample was centrifuged at 4000 g for 10 min, and the supernatant was collected for LC-MS/MS analysis.

[3] = Stability in dog liver microsome in vitro; type: in vitro ADME
Procedure: as §1, §2, §3, §4, §5, §6, §7

[4] = tested on: rats; test: Pharmacodynamic model of active escape experiment in rats; type: in vivo; conditions: F344 rats, oral dose 1 mg/kg one hour before test; vehicle 91-98%
Procedure: To evaluate the anti-schizophrenic effect of the compounds using the pharmacodynamic model of the active escape experiment in rats.
A prescription amount of the compound was weighed, followed by the addition of a prescription volume of 0.5% CMC-Na+1% Tween 80 solution. The compound solution was formulated before the administration, stored at 2 to 8° C., and used within 4 days.
5.2 Baseline Test and Grouping
The day before the compound screening test, a baseline test was performed. The test process was the same as 5.1.1 to 5.1.3, and the number of the baseline test was 20. The animals whose number of avoids reached 16 (80%) were grouped according to the number of avoids, 10 animals per group. The first group was administered with the vehicle orally, and the other groups were administered with the corresponding test compounds according to the experimental design.
The compound was administered orally (5 mL/kg) one hour before the test; The test process was the same as 5.1.1 to 5.1.4, and the number of the test was 20.
The following data was collected by the software for data analysis: • Number of avoids of the animal; • Number of escape failures of the animal; • Escape latency of the animal; • All measurement data were expressed as mean±standard error (Mean±SEM), and analyzed by Graphpad 6 statistical software. The difference was considered to be significant when p<0.05. 7.

[5] = Stability in human liver microsome in vitro; type: in vitro ADME
Procedure: as §1, §2, §3, §4, §5, §6, §7

`O=C(N[C@H]1C[C@H](CCN2CCN(c3cccc(Cl)c3Cl)CC2)C1)c1ccon1` [Example 25A, N-(Trans-3-(2-(4-(2,3-dichlorophenyl)piperazin-1-yl)ethyl)cyclobutyl)isoxazole-3-carboxamide] showed an AUC(0-t) ([1]; Brain) of 11900 ng·h/mL, a Tmax ([1]; Brain) of 60 min and a Cmax ([1]; Brain) of 1540 ng/mL. For the same molecule, the AUC(0-t) ([1]; Plasma) was 3050 ng·h/mL, the AUC(0-inf) ([1]; Plasma, read-out: Area under curve AUC0-∞) was 12900 ng·h/mL and the MRT ([1]; Plasma, read-out: Average residence time MRT) was 6.2 h. For the same molecule, the half-life ([1]; Plasma, read-out: Half life t1/2 (converted)) was 336 min, the Tmax ([1]; Plasma) was 30 min and the Cmax ([1]; Plasma) was 362 ng/mL. The “Remaining (%, 120 min)” value ([2]; 120 min) was 27.0%, the half-life at 1 μM ([2]; SD, rat liver microsomes, pH 7.4, 1 μM compound, NADPH/UDPGA, read-out: Half life (t1/2)) was 60.5 min and the microsomal CLint at 1 μM ([2]; SD, rat liver microsomes, pH 7.4, 1 μM compound, NADPH/UDPGA, read-out: Intrinsic clearance rate (CLint)) was 22.9 µL/min/mg. The “Remaining (%, 120 min)” value ([3]; 120 min) was 30.2%, the half-life at 1 μM ([3]; dog liver microsomes, pH 7.4, 1 μM compound, NADPH/UDPGA, read-out: Half life (t1/2)) was 69.5 min and the microsomal CLint at 1 μM ([3]; dog liver microsomes, pH 7.4, 1 μM compound, NADPH/UDPGA, read-out: Intrinsic clearance rate (CLint)) was 19.9 µL/min/mg. The CAR value [4] was 18%, the “Remaining (%, 120 min)” value ([5]; 120 min) was 38.8% and the half-life at 1 μM ([5]; human liver microsomes, pH 7.4, 1 μM compound, NADPH/UDPGA, read-out: Half life (t1/2)) was 90.1 min. For the same molecule, the microsomal CLint at 1 μM ([5]; human liver microsomes, pH 7.4, 1 μM compound, NADPH/UDPGA, read-out: Intrinsic clearance rate (CLint)) was 15.4 µL/min/mg.
